{"source": "ChEMBL document CHEMBL5136991", "about": "“Dual-target inhibitors of poly (ADP-ribose) polymerase-1 for cancer therapy: Advances, challenges, and opportunities” (Eur J Med Chem, 2022)", "key": {"[1]": {"assay": "Ratio of olaparib IC50 to test compound IC50 for antiproliferative against BRCA proficient human MCF7 cells", "format": "functional"}, "[2]": {"assay": "Ratio of olaparib IC50 to test compound IC50 for antiproliferative against BRCA deficient human HCC1937 cells", "format": "functional"}, "[3]": {"target": "Rho-associated protein kinase 1 (Homo sapiens, UniProt Q13464)", "sequence (Q13464 whole entry)": "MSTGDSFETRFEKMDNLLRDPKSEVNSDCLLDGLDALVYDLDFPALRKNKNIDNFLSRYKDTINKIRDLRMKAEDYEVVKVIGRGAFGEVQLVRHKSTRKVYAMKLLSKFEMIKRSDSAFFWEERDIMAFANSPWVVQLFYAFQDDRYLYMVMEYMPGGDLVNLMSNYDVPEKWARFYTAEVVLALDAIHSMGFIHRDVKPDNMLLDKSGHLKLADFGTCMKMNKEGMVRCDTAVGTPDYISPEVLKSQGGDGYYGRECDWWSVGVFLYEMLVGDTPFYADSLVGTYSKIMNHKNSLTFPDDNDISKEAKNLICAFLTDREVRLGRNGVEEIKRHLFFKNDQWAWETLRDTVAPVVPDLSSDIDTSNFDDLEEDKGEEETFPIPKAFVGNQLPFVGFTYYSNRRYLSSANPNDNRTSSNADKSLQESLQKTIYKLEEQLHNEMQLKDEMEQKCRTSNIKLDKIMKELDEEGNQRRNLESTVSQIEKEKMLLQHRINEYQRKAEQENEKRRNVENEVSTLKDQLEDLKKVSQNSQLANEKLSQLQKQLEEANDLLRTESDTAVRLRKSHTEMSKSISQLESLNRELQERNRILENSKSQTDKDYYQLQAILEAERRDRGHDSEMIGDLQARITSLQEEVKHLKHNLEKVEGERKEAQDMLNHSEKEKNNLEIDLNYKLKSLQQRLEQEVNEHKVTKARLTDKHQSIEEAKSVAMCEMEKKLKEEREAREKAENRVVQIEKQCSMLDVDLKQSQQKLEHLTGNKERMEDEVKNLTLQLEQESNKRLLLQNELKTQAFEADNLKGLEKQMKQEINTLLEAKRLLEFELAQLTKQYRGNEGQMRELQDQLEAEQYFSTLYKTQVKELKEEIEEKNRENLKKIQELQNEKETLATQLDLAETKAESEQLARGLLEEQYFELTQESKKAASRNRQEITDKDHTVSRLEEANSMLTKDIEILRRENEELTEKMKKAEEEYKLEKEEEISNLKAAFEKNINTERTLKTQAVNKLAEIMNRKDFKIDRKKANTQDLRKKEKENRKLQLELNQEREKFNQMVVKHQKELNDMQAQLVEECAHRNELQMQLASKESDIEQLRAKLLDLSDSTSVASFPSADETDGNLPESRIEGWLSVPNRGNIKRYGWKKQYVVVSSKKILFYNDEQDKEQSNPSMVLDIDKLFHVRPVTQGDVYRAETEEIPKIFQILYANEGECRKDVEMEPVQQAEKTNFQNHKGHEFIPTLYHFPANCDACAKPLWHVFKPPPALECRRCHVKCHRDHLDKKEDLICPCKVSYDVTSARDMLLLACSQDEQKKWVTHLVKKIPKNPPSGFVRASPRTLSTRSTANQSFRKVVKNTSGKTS", "assay": "Inhibition of ROCK1 (unknown origin)"}, "[4]": {"target": "Rho-associated protein kinase 2 (Homo sapiens, UniProt O75116)", "sequence (O75116 whole entry)": "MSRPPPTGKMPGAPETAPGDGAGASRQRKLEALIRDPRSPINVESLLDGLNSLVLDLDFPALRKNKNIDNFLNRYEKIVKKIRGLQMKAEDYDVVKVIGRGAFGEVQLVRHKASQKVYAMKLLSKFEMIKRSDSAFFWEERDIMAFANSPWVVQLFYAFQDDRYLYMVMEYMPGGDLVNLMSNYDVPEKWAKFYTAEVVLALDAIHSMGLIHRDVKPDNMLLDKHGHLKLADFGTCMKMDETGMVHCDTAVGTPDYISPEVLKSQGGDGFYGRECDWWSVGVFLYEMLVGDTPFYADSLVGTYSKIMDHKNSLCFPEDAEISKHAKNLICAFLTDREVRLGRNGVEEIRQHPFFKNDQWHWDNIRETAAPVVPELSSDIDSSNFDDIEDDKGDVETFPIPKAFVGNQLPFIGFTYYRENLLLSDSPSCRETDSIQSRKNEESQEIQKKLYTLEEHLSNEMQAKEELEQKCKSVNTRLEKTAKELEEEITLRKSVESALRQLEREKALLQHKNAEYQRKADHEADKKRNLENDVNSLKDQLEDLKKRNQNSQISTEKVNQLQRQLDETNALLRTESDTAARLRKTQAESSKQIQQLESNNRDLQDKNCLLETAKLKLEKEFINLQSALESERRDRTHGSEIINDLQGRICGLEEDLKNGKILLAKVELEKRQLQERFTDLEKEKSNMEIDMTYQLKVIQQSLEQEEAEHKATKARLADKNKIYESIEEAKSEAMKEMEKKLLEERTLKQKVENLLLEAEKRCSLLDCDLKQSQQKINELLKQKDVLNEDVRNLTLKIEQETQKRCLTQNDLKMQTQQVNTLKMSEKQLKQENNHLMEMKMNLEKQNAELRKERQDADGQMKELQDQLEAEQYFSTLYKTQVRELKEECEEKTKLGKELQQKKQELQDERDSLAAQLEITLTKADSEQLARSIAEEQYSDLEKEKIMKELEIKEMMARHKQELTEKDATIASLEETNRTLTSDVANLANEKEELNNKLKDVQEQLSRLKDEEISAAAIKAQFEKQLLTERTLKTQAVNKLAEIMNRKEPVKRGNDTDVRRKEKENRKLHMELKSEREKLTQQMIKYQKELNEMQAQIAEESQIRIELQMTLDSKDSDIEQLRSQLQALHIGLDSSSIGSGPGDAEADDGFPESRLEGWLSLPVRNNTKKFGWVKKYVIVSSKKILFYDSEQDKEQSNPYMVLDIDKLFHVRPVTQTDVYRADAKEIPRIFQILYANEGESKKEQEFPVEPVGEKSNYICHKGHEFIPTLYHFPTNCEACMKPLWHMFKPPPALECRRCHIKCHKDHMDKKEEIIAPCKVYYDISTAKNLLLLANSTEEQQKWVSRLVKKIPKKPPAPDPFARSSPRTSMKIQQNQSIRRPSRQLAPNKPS", "assay": "Inhibition of ROCK2 (unknown origin)"}, "[5]": {"assay": "Inhibition of PARP (unknown origin)", "parameters": "species or system Homo sapiens"}, "[6]": {"target": "Dihydroorotate dehydrogenase (quinone), mitochondrial (Homo sapiens, UniProt Q02127)", "sequence (Q02127 whole entry)": "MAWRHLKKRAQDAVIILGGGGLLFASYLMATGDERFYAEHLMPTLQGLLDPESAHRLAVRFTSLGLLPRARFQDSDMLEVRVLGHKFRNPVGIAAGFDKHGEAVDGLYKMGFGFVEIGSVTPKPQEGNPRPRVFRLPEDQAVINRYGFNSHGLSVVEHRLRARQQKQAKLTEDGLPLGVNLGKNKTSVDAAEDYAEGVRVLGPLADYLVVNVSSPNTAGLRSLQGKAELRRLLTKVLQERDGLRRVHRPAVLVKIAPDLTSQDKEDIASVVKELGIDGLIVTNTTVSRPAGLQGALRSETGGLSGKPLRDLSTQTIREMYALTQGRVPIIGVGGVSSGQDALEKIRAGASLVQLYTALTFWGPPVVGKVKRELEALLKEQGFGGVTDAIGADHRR", "assay": "Inhibition of DHODH (unknown origin)"}, "[7]": {"target": "Poly [ADP-ribose] polymerase 2 (Homo sapiens, UniProt Q9UGN5)", "assay": "Inhibition of PARP2 (unknown origin) incubated for 60 mins by microplate assay kit method"}, "[8]": {"assay": "Inhibition of porcine brain microtubule polymerization incubated for 105 mins by fluorescent based assay", "parameters": "species or system Sus scrofa"}, "[9]": {"target": "T1, Poly [ADP-ribose] polymerase 1 (Homo sapiens, UniProt P09874)", "T1 sequence (P09874 whole entry)": "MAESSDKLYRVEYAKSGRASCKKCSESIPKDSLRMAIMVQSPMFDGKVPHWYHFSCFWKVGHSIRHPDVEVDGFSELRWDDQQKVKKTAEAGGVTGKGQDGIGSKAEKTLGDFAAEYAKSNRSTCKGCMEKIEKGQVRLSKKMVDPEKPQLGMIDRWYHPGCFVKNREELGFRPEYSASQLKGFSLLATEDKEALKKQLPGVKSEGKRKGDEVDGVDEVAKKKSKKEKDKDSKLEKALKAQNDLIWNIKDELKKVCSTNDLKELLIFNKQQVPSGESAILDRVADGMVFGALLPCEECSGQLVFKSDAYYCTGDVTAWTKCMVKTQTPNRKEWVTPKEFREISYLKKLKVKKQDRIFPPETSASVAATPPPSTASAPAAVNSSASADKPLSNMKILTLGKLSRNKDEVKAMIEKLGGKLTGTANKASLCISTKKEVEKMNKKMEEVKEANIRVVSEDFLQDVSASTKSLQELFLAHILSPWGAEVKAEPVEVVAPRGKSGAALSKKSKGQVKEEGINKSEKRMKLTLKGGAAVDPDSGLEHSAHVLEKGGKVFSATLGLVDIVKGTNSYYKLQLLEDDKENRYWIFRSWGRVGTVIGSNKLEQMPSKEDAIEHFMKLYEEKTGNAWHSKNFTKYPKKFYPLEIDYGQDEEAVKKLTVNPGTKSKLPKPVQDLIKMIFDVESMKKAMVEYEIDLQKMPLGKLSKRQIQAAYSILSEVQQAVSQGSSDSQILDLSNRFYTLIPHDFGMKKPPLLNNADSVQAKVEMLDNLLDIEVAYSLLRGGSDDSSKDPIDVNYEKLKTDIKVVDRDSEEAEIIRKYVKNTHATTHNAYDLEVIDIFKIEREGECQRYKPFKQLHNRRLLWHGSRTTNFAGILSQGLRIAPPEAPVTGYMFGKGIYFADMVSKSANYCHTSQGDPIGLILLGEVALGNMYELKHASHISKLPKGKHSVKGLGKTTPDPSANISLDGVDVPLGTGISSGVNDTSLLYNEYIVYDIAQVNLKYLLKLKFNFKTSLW", "assay": "Inhibition of PARP1 (unknown origin) incubated for 60 mins by microplate assay kit method"}, "[10]": {"assay": "Cmax in Sprague-Dawley rat plasma at 10 mg/kg, po", "format": "ADME, organism-based", "parameters": "dose 10 mg/kg, route po", "conditions": "in vivo"}, "[11]": {"assay": "Half life in Sprague-Dawley rat plasma at 10 mg/kg, po", "format": "ADME, organism-based", "conditions": "in vivo"}, "[12]": {"target": "T1, Poly [ADP-ribose] polymerase 1", "assay": "Inhibition of PARP1 (unknown origin) relative to control", "conditions": "concentration not given here"}, "[13]": {"assay": "Tmax in Sprague-Dawley rat plasma at 10 mg/kg, po", "format": "ADME, organism-based", "conditions": "in vivo"}, "[14]": {"assay": "MRT in Sprague-Dawley rat plasma at 10 mg/kg, po", "format": "ADME, organism-based"}, "[15]": {"assay": "AUC (0 to infinity) in Sprague-Dawley rat plasma at 10 mg/kg, po", "format": "ADME, organism-based", "parameters": "time infinity, dose 10 mg/kg, route po", "conditions": "in vivo"}, "[16]": {"target": "T2, Bromodomain-containing protein 1 (Homo sapiens, UniProt O95696)", "T2 sequence (O95696 whole entry)": "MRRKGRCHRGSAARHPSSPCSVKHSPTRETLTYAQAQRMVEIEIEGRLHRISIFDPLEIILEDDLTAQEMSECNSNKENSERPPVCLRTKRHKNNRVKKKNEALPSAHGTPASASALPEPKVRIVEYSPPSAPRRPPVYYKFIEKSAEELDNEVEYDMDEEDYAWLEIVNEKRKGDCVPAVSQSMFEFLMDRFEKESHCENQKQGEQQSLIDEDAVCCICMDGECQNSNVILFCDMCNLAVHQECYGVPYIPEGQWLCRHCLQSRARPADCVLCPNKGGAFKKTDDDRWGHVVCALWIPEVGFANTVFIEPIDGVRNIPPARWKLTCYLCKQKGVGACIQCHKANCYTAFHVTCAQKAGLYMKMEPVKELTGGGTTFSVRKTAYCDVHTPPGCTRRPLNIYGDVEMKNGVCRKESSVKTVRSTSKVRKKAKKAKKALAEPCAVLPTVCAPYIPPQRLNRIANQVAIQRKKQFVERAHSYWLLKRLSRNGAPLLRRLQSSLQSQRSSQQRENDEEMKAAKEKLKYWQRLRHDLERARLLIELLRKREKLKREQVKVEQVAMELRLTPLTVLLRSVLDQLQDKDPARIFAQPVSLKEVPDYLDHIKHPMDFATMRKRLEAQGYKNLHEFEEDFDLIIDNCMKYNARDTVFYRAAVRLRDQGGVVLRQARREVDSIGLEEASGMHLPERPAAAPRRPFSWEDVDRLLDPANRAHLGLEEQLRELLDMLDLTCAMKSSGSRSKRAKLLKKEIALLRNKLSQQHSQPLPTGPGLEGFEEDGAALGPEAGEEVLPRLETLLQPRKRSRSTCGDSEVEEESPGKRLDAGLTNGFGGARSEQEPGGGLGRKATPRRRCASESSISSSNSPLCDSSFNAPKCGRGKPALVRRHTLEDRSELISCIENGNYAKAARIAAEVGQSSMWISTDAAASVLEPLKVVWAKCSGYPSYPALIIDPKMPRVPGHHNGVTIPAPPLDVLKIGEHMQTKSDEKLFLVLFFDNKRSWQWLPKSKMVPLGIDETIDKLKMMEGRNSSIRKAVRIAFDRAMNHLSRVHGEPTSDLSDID", "assay": "Inhibition of BRD1 (unknown origin)"}, "[17]": {"target": "T3, Bromodomain-containing protein 4 (Homo sapiens, UniProt O60885)", "assay": "Inhibition of BRD4 (unknown origin) relative to control", "conditions": "concentration not given here"}, "[18]": {"target": "T3, Bromodomain-containing protein 4", "assay": "Inhibition of BRD4 (unknown origin)"}, "[19]": {"target": "Bromodomain-containing protein 2 (Homo sapiens, UniProt P25440)", "sequence (P25440 whole entry)": "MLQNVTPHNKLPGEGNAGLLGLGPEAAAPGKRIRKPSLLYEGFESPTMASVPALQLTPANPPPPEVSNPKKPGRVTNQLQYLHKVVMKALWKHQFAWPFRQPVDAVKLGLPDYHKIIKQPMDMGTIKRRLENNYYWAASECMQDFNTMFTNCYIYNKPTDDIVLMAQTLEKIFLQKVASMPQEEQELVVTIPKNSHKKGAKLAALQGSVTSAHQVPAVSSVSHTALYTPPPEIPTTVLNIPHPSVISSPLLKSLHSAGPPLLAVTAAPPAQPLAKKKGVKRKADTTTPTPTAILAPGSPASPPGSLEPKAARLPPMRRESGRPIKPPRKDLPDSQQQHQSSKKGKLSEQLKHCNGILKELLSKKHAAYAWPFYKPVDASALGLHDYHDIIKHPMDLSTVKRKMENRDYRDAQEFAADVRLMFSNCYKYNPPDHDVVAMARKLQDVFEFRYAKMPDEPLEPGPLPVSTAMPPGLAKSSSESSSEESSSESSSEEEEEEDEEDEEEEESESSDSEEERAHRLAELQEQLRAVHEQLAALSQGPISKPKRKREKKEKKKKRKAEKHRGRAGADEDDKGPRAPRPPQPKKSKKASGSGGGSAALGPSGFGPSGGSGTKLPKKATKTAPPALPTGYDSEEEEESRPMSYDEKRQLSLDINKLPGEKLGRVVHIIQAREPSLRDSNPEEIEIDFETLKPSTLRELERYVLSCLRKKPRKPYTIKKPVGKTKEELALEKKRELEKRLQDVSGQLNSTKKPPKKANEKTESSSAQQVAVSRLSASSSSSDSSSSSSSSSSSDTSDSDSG", "assay": "Inhibition of BRD2 (unknown origin)"}, "[20]": {"target": "T1, Poly [ADP-ribose] polymerase 1", "assay": "Inhibition of PARP1 (unknown origin)"}, "[21]": {"target": "T3, Bromodomain-containing protein 4", "assay": "Ratio of IC50 for RVX-208 to IC50 for test compound for BRD4 (unknown origin)"}, "[22]": {"test_system": "MCF7", "assay": "Antiproliferative activity against BRCA proficient human MCF7 cells assessed as inhibition of cell growth incubated for 48 hrs by MTT assay", "format": "functional, cell-based", "conditions": "MCF7, 48 h"}, "[23]": {"test_system": "HCC1937", "assay": "Antiproliferative activity against BRCA deficient human HCC1937 cells assessed as inhibition of cell growth incubated for 48 hrs by MTT assay", "format": "functional, cell-based", "conditions": "HCC1937, 48 h"}, "[24]": {"target": "T3, Bromodomain-containing protein 4", "assay": "Inhibition of BRD4 (unknown origin) at […] relative to control"}, "[25]": {"target": "T1, Poly [ADP-ribose] polymerase 1", "assay": "Inhibition of PARP1 (unknown origin) at […] relative to control"}}, "note": "pIC50: −log10 of the molar value.", "data": [{"compound": "O=C1/C(=C/c2ccncc2)CN(C(=O)c2cc(Cc3n[nH]c(=O)c4ccccc34)ccc2F)C/C1=C\\c1ccncc1", "values": [{"measurement": "Ratio IC50", "setting": "[1]", "value": 200}, {"measurement": "Ratio IC50", "setting": "[2]", "value": 40}]}, {"compound": "O=C(COc1cccc2c(=O)[nH]ccc12)c1ccccc1", "values": [{"measurement": "pIC50", "setting": "[3]", "value": 5.03}, {"measurement": "pIC50", "setting": "[4]", "value": 4.69}]}, {"compound": "CC(=O)Nc1cccc(-c2ccc(-c3nc4c(C(N)=O)cccc4[nH]3)cc2)c1", "values": [{"measurement": "pIC50", "setting": "[5]", "value": 6.34}]}, {"compound": "O=C(O)c1cc(F)cc2[nH]c(-c3ccc(-c4ccc(NC(=O)C5CC5)cc4F)cc3F)nc12", "values": [{"measurement": "pIC50", "setting": "[5]", "value": 7.08}, {"measurement": "pIC50", "setting": "[6]", "value": 4.32}]}, {"compound": "CCOC(=O)Nc1nc2ccc(-c3cc(Cc4n[nH]c(=O)c5ccccc45)ccc3F)cc2[nH]1", "values": [{"measurement": "pIC50", "setting": "[7]", "value": 7.30}, {"measurement": "pIC50", "setting": "[8]", "value": 6.00}, {"measurement": "pIC50", "setting": "[9]", "value": 8.30}]}, {"compound": "COc1cc(OC)c2c(=O)[nH]c(-c3ccc(OCCOc4ccccc4C(N)=O)cc3)nc2c1", "values": [{"measurement": "Cmax", "setting": "[10]", "value": 26.65, "unit": "ng/mL"}, {"measurement": "t1/2", "setting": "[11]", "value": 3.1, "unit": "h"}, {"measurement": "inhibition", "setting": "[12]", "value": 88, "unit": "%"}, {"measurement": "Tmax", "setting": "[13]", "value": 1.58, "unit": "h"}, {"measurement": "MRT", "setting": "[14]", "value": 5.35, "unit": "h"}, {"measurement": "AUC", "setting": "[15]", "value": 144.7, "unit": "ng·h/mL"}, {"measurement": "pIC50", "setting": "[16]", "value": 6.36}, {"measurement": "inhibition", "setting": "[17]", "value": 92, "unit": "%"}, {"measurement": "pIC50", "setting": "[18]", "value": 6.40}, {"measurement": "pIC50", "setting": "[19]", "value": 6.42}, {"measurement": "pIC50", "setting": "[20]", "value": 5.34}, {"measurement": "Ratio IC50", "setting": "[21]", "value": 30}]}, {"compound": "O=C(c1cc(Cc2n[nH]c(=O)c3ccccc23)ccc1F)N1CCN(C(=O)C2CC2)CC1", "note": "[OLAPARIB]", "values": [{"measurement": "pIC50", "setting": "[22]", "value": 3.63}, {"measurement": "pIC50", "setting": "[23]", "value": 4.08}]}, {"compound": "COc1cc(OC)c2c(=O)[nH]c(-c3ccc([C@@H]4CCCNC4)cc3)nc2c1", "values": [{"measurement": "inhibition", "setting": "[24]", "value": 30, "unit": "%"}, {"measurement": "inhibition", "setting": "[25]", "value": 65, "unit": "%"}]}, {"compound": "NC(=O)c1cccc2[nH]c(-c3ccc(-c4cncc(CN5CCCC5)c4)cc3)nc12", "values": [{"measurement": "pIC50", "setting": "[5]", "value": 7.21}]}, {"compound": "CC(=O)Nc1ccc(COc2ccc(-c3ccc(-c4nc5c(C(=O)O)cc(C)cc5[nH]4)cc3)cc2)cc1", "values": [{"measurement": "pIC50", "setting": "[5]", "value": 4.36}]}]}
